Reference: US20080318957A1, “POLYBASIC BACTERIAL EFFLUX PUMP INHIBITORS AND THERAPEUTIC USES THEREOF” (priority 2007, published 2008)

Test system: strain of P. aeruginosa, PAM1723, overexpressing the MexAB-OprM efflux pump
Test: checkerboard assay, levofloxacin potentiating activity (broth microdilution)
Assay type: cell-based
Settings: lowest inhibitor concentration giving antibacterial activity with levofloxacin at 1/32 of its MIC; MHB, 20 h, 35° C.
Experimental: All EPI compounds were readily soluble in water and stock solutions were prepared at a final concentration of 10 mg/ml. Stock solutions were further diluted, according to the needs of the particular assay, in Mueller Hinton Broth (MHB). Stock solution was stored at −80° C.
The checkerboard assay was performed in microtiter plates. […] EPIs were diluted in the y-axis, each row containing a single concentration of an EPI. The result of these manipulations was that each well of the microtiter plate contained a unique combination of concentrations of the two agents. The assay was performed in MHB with a final bacterial inoculum of 5 times 10^5 CFU/ml (from an early-log phase culture). Microtiter plates were incubated during 20 h at 35° C. and were read using a microtiterplate reader (Molecular Devices) at 650 nm as well as visual observation using a microtiter plate-reading mirror.

Structure (SMILES) | MPC32 (Minimum Potentiating Concentration)
NCCN(CCN)C(=O)CC[C@H](N)C(=O)N[C@H](Cc1ccc(C(F)(F)F)cc1)C(=O)Nc1cnc2ccccc2c1 [Compound 1, 3-[(1S)-3-[bis(2-azaniumylethyl)carbamoyl]-1-{[(1R)-1-carbamoyl-2-[4-(trifluoromethyl)phenyl]ethyl]carbamoyl}propan-1-aminium]quinolin-1-ium tetrachloride] | 0.6 µg/mL
NCCN(CCN)C(=O)C[C@H](N)C(=O)N[C@@H](CCc1ccccc1)C(=O)Nc1cnc2ccccc2c1 [Compound 2] | 5 µg/mL
NCCN(CCN)C(=O)CC[C@H](N)C(=O)N[C@H](C(=O)Nc1cnc2ccccc2c1)[C@H](O)c1ccc(C(F)(F)F)cc1 [Compound 3, 3-[(1S)-3-[bis(2-azaniumylethyl)carbamoyl]-1-{[(1S,2R)-1-carbamoyl-2-hydroxy-2-[4-(trifluoromethyl)phenyl]ethyl]carbamoyl]propan-1-aminium]quinolin-1-ium tetrachloride] | >10 µg/mL
NCCN(CCN)C(=O)CC[C@H](N)C(=O)N/C(=C/c1ccc(C(F)(F)F)cc1)C(=O)Nc1cnc2ccccc2c1 [Compound 4, 3-[(1S)-3-[bis(2-azaniumylethyl)carbamoyl]-1-{[(1E)-1-carbamoyl-2-[4-(trifluoromethyl)phenyl]eth-1-en-1-yl]carbamoyl}propan-1-aminium]quinolin-1-ium tetrachloride] | 2.5 µg/mL
CN(C(=O)[C@@H](N)CCC(=O)N(CCN)CCN)[C@@H](Cc1ccc(C(F)(F)F)cc1)C(=O)Nc1cnc2ccccc2c1 [Compound 5, 3-[(1S)-3-[bis(2-azaniumylethyl)carbamoyl]-1-{[(1S)-1-carbamoyl-2-[4-(trifluoromethyl)phenyl]ethyl](methyl)carbamoyl}propan-1-aminium]quinolin-1-ium tetrachloride] | >10 µg/mL
